In patent publication US11840686B2, “Modulation of prekallikrein (PKK) expression” (Ionis Pharmaceuticals, Inc., priority 2013, dated 2023):
Strand notation (5' to 3'): a small letter for the sugar, then the base; units joined by * are phosphorothioate-linked, units joined directly phosphodiester-linked; [ ] holds rarer units or linkages, { } end groups; capitals alone tell only the bases. e = 2'-O-(2-methoxyethyl) (MOE); [5mC] = 5-methylcytosine; d = 2'-deoxy (DNA)

System: human PKK mRNA
Test: Antisense inhibition of human PKK mRNA in HepaRG cells, 5,000 nM (Example 2)
Format: cell-based
Outline: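 HepaRG cells, 20,000 per well, were electroporated with 5,000 nM MOE gapmer (phosphorothioate, 5-methylcytosine) and incubated about 24 hours. PKK mRNA was quantified by qRT-PCR with primer probe set RTS3454, normalized to RIBOGREEN total RNA, and expressed as percent inhibition versus untreated controls.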

[1] = human PKK mRNA, HepaRG cells, 5,000 nM antisense oligonucleotide, Table 18
[2] = HepaRG cells, electroporation, 5,000 nM antisense oligonucleotide, approx. 24 hours, primer probe set RTS3454, relative to untreated control cells, Table 12
[3] = Table 7, HepaRG cells, electroporation with 5,000 nM antisense oligonucleotide, approx. 24 hours, PKK mRNA by RT-PCR (RTS3454), relative to untreated control cells
[4] = HepaRG cells, 5,000 nM antisense oligonucleotide, 5-10-5 gapmers, Table 17

546946 (eA*e[5mC]*eT*e[5mC]*e[5mC]*d[5mC]*dA*dT*d[5mC]*dT*dA*d[5mC]*dT*d[5mC]*d[5mC]*e[5mC]*e[5mC]*e[5mC]*eA*eT; antisense) [compound 546946]
% inhibition (HepaRG cells, 5,000 nM antisense oligonucleotide, 5-10-5 gapmers, Table 16): 41%

548735 (DNA eA*eT*e[5mC]*eA*d[5mC]*dT*dG*dT*dA*d[5mC]*dT*dA*dG*dT*eT*eT*e[5mC]; antisense) [compound 548735]
% inhibition [1]: 48%

547656 (e[5mC]*eA*eA*eT*eA*dT*d[5mC]*dA*d[5mC]*dT*dG*dT*d[5mC]*d[5mC]*dT*eA*eT*eA*eA*e[5mC]; antisense) [compound 547656]
% inhibition (human PKK mRNA, HepaRG cells, 5-10-5 motif oligonucleotides targeting SEQ ID NO: 1 and 10): 42%

548764 (antisense eT*eA*eT*e[5mC]*dA*d[5mC]*dT*dG*dT*d[5mC]*d[5mC]*dT*dA*eT*eA*eA*e[5mC]) [compound 548764]
% inhibition [1]: 31%

547609 (antisense e[5mC]*eT*eA*eT*eA*dA*d[5mC]*dA*dA*dT*dA*dT*d[5mC]*dA*d[5mC]*eT*eG*eT*eA*e[5mC]) [compound 547609]
% inhibition (human PKK mRNA in HepaRG cells, 5-10-5 gapmers, Table 14): 23%

547542 (antisense eA*eT*eA*e[5mC]*eT*d[5mC]*dG*d[5mC]*d[5mC]*dT*dT*dT*dG*dT*dG*eA*e[5mC]*eT*e[5mC]*eG) [compound 547542]
% inhibition [2]: 35%

547407 (eT*eT*e[5mC]*eA*eA*dT*dT*d[5mC]*dT*dT*d[5mC]*dT*d[5mC]*d[5mC]*dT*e[5mC]*e[5mC]*eA*eA*eA; antisense) [compound 547407]
% inhibition [3]: 59%

546242 (eG*eG*eG*eT*eT*d[5mC]*dA*dG*dG*dT*dA*dA*dA*dG*dT*eT*e[5mC]*eT*eT*eT; antisense) [compound 546242]
% inhibition [3]: 8%

546710 (eG*eA*eA*eG*e[5mC]*d[5mC]*dT*dG*dT*dT*dA*dG*dA*dG*dT*eT*eG*eG*e[5mC]*e[5mC]; antisense) [compound 546710]
% inhibition [2]: 73%

547543 (antisense eT*eT*eT*eT*e[5mC]*d[5mC]*dA*dT*dG*d[5mC]*dA*dT*dA*d[5mC]*dT*e[5mC]*eG*e[5mC]*e[5mC]*eT) [compound 547543]
% inhibition [2]: 54%

547558 (e[5mC]*e[5mC]*e[5mC]*e[5mC]*e[5mC]*dA*dG*dT*dT*d[5mC]*d[5mC]*d[5mC]*dA*dT*dG*e[5mC]*eA*eA*eG*eG; antisense) [compound 547558]
% inhibition (Table 13, human PKK mRNA in HepaRG cells, 5-10-5 gapmers): 52%

546386 (eA*eG*e[5mC]*e[5mC]*eA*dG*dA*d[5mC]*dA*dT*dT*dG*dT*d[5mC]*d[5mC]*eT*e[5mC]*eA*eG*e[5mC]; antisense) [compound 546386]
% inhibition (HepaRG cells, electroporation, 5,000 nM antisense oligonucleotide, approx. 24 hours, primer probe set RTS3454, relative to untreated control cells, Table 11): 78%

547299 (antisense eA*eA*eA*e[5mC]*eT*dG*dA*dA*dT*dA*dG*d[5mC]*dA*dA*dA*e[5mC]*eA*e[5mC]*e[5mC]*eT) [compound 547299]
% inhibition (HepaRG cells, electroporation with 5,000 nM antisense oligonucleotide, approximately 24 hours, PKK mRNA by RT-PCR (RTS3454), relative to untreated control cells, Table 5 experiment): 76%

547022 (eA*eT*eT*eG*eG*dT*dG*dG*d[5mC]*dG*dG*dG*dA*dT*d[5mC]*eG*eG*eT*eG*eG; antisense) [compound 547022]
% inhibition [4]: 69%

547555 (eT*eG*eT*e[5mC]*eT*d[5mC]*d[5mC]*dT*dT*d[5mC]*d[5mC]*dA*d[5mC]*dT*dT*eG*e[5mC]*eT*e[5mC]*e[5mC]; antisense) [compound 547555]
% inhibition [2]: 58%

547000 (eT*e[5mC]*eT*eG*eT*dT*dA*d[5mC]*d[5mC]*dT*dT*dG*dA*dG*dG*eA*eT*eT*eG*eT; antisense) [compound 547000]
% inhibition [4]: 63%

548733 (DNA e[5mC]*eA*e[5mC]*eT*dG*dT*dA*d[5mC]*dT*dA*dG*dT*dT*dT*e[5mC]*e[5mC]*eT; antisense) [compound 548733]
% inhibition [1]: 84%

546432 (eG*eA*e[5mC]*e[5mC]*e[5mC]*d[5mC]*dA*dA*d[5mC]*dA*dG*dA*d[5mC]*dA*dG*e[5mC]*e[5mC]*e[5mC]*eA*e[5mC]; antisense) [compound 546432]
% inhibition [2]: 62%

546238 (e[5mC]*eT*eT*eT*eT*dG*d[5mC]*dA*dG*dG*dT*dT*dA*dA*dA*eA*eG*eG*e[5mC]*eT; antisense) [compound 546238]
% inhibition [3]: 63%
